Test results from patent US6825172B2, “3-descladinosyl-6-O-carbamoyl and 6-O-carbonoyl macrolide antibacterial agents” (Janssen Pharmaceutica, NV, priority 2002, dated 2004).
In brackets after ≈: the same amount, converted by molar mass. Where two headings read alike, the source gives them in different places.

What was measured:
Assay in all cases: MIC, microdilution broth method (NCCLS)
Type in all cases: cell-based
S. pneumoniae ATCC49619 = conditions: Streptococcus pneumoniae, read-out: MIC Values, D: S. pneumoniae ATCC49619
In short: (§1)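 NCCLS M7-A4 broth microdilution: two-fold drug dilutions in cation-adjusted Mueller-Hinton broth, inoculum approximately 5×10^4 CFU/well. Trays incubated at 35 °C for 16-20 hours. MIC read by comparing growth to compound-free growth controls.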

S. aureus ATCC29213 = conditions: Staphylococcus aureus, read-out: MIC Values, B: S. aureus ATCC29213
In short: as §1

E. faecalis ATCC29212 = conditions: Enterococcus faecalis, read-out: MIC Values, C: E. faecalis ATCC29212
In short: as §1

H. influenzae ATCC49247 = conditions: Haemophilus influenzae, read-out: MIC Values, E: H. influenzae ATCC49247
In short: as §1

E. coli OC2605 = conditions: Escherichia coli
In short: as §1

[1] = Table 2, 3,6-Dicarbamoyl Macrolide Derivatives
[2] = Table 1, 6-Carbamoyl-3-Acyl Macrolide Derivatives

MIC (S. pneumoniae ATCC49619; [1]) [µg/mL]	MIC (S. aureus ATCC29213; [1]) [µg/mL]	MIC (E. faecalis ATCC29212; [1]) [µg/mL]	MIC (H. influenzae ATCC49247; [1]) [µg/mL]	MIC (E. coli OC2605; Table 2, 3,6-Dicarbamoyl Macrolide Derivatives, read-out: MIC Values, A: E. coil OC2605) [µg/mL]	MIC (S. pneumoniae ATCC49619; [2]) [µg/mL]	MIC (S. aureus ATCC29213; [2]) [µg/mL]	MIC (E. faecalis ATCC29212; [2]) [µg/mL]	MIC (H. influenzae ATCC49247; [2]) [µg/mL]	MIC (E. coli OC2605; Table 1, 6-Carbamoyl-3-Acyl Macrolide Derivatives, read-out: MIC Values, A: E. coli OC2605) [µg/mL]	Structure (SMILES)
0.03 (≈ 0.033 µM)	0.5 (≈ 0.55 µM)	0.25 (≈ 0.275 µM)	4 (≈ 4.4 µM)	16 (≈ 17.6 µM)						CC[C@H]1OC(=O)[C@H](C)[C@@H](OC(=O)N(C)C)[C@H](C)[C@@H](O[C@@H]2O[C@H](C)C[C@H](N(C)C)[C@H]2O)[C@](C)(OC(=O)NC/C=C/c2ccc(-c3ncccn3)cc2)C[C@@H](C)C(=O)[C@H](C)[C@H]2NC(=O)O[C@@]21C [Compound 55]
					0.06 (≈ 0.0627 µM)	0.25 (≈ 0.261 µM)	0.25 (≈ 0.261 µM)	2 (≈ 2.09 µM)	8 (≈ 8.36 µM)	CC[C@H]1OC(=O)[C@H](C)[C@@H](OC(=O)Cc2cccnc2)[C@H](C)[C@@H](O[C@@H]2O[C@H](C)C[C@H](N(C)C)[C@H]2O)[C@](C)(OC(=O)NC/C=C/c2ccc(-c3ncccn3)cc2)C[C@@H](C)C(=O)[C@H](C)[C@H]2NC(=O)O[C@@]21C [Compound 4, 3-Pyridineacetic acid, (3aS,4R,7R,8S,9S,10R,11R,13R,15R,15aR)-4-ethyltetradecahydro-3a,7,9,11,13,15-hexamethyl-2,6,14-trioxo-11-[[[[(2E)-3-[4-(2-pyrimidinyl)phenyl]-2-propenyl]amino]carbonyl]oxy]-10-[[3,4,6-trideoxy-3-(dimethylamino)-β-D-xylo-hexopyranosyl]oxy]-2H-oxacyclotetradecino[4,3-d]oxazol-8-yl ester]
